Assay results from ChEMBL document CHEMBL1955805, “New aromatase inhibitors from the 3-pyridyl arylether and 1-aryl pyrrolo[2,3-c]pyridine series” (Bioorg Med Chem Lett, 2012).

How the values were obtained:
[1] = target: T1, aromatase (CYP19) (Homo sapiens, UniProt P11511); experiment: Inhibition of human aromatase coexpressed with P450 reductase at 1 uM by fluorimetry; details: recombinant human aromatase coexpressed with P450 reductase
T1 sequence (P11511 whole entry): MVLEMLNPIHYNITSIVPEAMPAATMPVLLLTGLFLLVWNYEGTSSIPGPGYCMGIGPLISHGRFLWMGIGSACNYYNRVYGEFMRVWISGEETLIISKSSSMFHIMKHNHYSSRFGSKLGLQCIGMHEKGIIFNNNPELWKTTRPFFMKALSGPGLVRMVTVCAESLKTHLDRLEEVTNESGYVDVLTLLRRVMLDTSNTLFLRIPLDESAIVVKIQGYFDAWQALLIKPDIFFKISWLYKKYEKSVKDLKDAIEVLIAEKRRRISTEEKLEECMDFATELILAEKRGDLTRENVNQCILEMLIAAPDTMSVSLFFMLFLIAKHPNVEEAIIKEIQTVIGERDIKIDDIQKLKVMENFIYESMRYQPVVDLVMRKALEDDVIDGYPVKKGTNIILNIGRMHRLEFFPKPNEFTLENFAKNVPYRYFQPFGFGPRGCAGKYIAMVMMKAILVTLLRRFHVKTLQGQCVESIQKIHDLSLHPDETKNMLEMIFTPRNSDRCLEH

[2] = target: T2, Aromatase (Homo sapiens, UniProt P11511); experiment: Inhibition of human aromatase coexpressed with P450 reductase by fluorimetry
T2 sequence (P11511 whole entry): T1 sequence (P11511 whole entry)

[3] = species on record: Homo sapiens; experiment: Selectivity ratio of IC50 for CYP3A4 to IC50 for human aromatase
[4] = species on record: Homo sapiens; experiment: Selectivity ratio of IC50 for CYP2C9 to IC50 for human aromatase
[5] = species on record: Homo sapiens; experiment: Selectivity ratio of IC50 for CYP2D6 to IC50 for human aromatase

inhibition at 1 µM [1] | IC50 [2] | SMILES | also measured
97% | 114 nM | N#Cc1ccc(-n2ccc3ccncc32)cc1Oc1ccccc1 | 
58% | 986 nM | N#Cc1ccc(Oc2cccnc2)cc1NCc1ccccc1 | 
1% |  | N#Cc1ccc(Oc2cccnn2)cc1 | 
94% | 93 nM | N#Cc1ccc(-n2ccc3ccncc32)cc1 | Ratio IC50 [3]: > 200; Ratio IC50 [4]: > 200; Ratio IC50 [5]: > 200
81% | 304 nM | N#Cc1ccc(Oc2cccnc2)cc1Oc1cccnc1 | 
33% |  | N#Cc1ccc(Oc2cccnc2)cc1NC1CCCCC1 | 
> 99% |  | Cc1cc(-n2ccc3ccncc32)ccc1C#N | 
85% | 523 nM | Clc1ccc(-n2ccc3ccncc32)cc1 | 
25% |  | N#Cc1ccc(Oc2cccnc2)cc1Oc1cccc(Cl)c1 | 
52% |  | N#Cc1ccc(Oc2cccnc2)c(F)c1 | 
78% |  | N#Cc1ccc(Oc2cccnc2)cc1Oc1ccccc1 | 
82% |  | N#Cc1ccc(Oc2cccnc2)c(Oc2cccnc2)c1 | 
26% |  | Ic1ccc(-n2ccc3ccncc32)cc1 | 
88% |  | N#Cc1ccc(Cn2cncn2)cc1 | 
84% |  | COc1ccc(Oc2cc(Oc3cccnc3)ccc2C#N)cc1 | 
70% | 289 nM | N#Cc1ccc(Oc2cccnc2)cc1 | 
15% |  | N#Cc1ccc(Oc2cccnc2)cc1F | 
89% | 229 nM | N#Cc1ccc(Oc2cccnc2)c(Oc2cccc(Cl)c2)c1 | 
53% |  | N#Cc1ccc(Oc2ccncc2)cc1 | 
27% | 5030 nM | N#Cc1ccc(Oc2cccnc2)cc1C#N | 
60% |  | NC(=O)c1ccc(-n2ccc3ccncc32)cc1 | 
96% | 59 nM | Cc1cc(-n2ccc3ccncc32)ccc1Cl | 
56% |  | Brc1ccc(-n2ccc3ccncc32)cc1 | 

SMILES | inhibition at 1 µM [1] | IC50 [2] | also measured
CN1CCN(c2cc(Oc3cccnc3)ccc2C#N)CC1 | 8% |  | 
